How the values were obtained:
Format in all cases: functional, cell-based
[1] = test system: HL-60; experiment: Cytotoxicity against human HL60 cells assessed as reduction in cell viability after 48 hrs by MTS assay; conditions: HL-60, 48 h
[2] = test system: MCF7; experiment: Cytotoxicity against human MCF7 cells assessed as reduction in cell viability after 48 hrs by MTS assay; conditions: MCF7, 48 h
[3] = test system: SMMC-7721; experiment: Cytotoxicity against human SMMC7721 cells assessed as reduction in cell viability after 48 hrs by MTS assay; conditions: SMMC-7721, 48 h
[4] = test system: A549; experiment: Cytotoxicity against human A549 cells assessed as reduction in cell viability after 48 hrs by MTS assay; conditions: A549, 48 h
[5] = test system: SW480; experiment: Cytotoxicity against human SW480 cells assessed as reduction in cell viability after 48 hrs by MTS assay; conditions: SW480, 48 h

Row | SMILES | IC50 [1] [µM] | IC50 [2] [µM] | IC50 [3] [µM] | IC50 [4] [µM] | IC50 [5] [µM]
1 | CO[C@H]1C[C@H](O[C@H]2[C@@H](OC)C[C@H](O[C@H]3CC[C@]4(C)[C@H]5C[C@@H](OC(=O)/C=C(\C)C(C)C)[C@@]6(C)[C@](O)(CC[C@@]6(O)C(C)=O)[C@]5(O)C[C@@H]5O[C@@]54C3)O[C@@H]2C)O[C@H](C)[C@H]1O | 15.8 | > 40 | > 40 | > 40 | > 40
2 | CO[C@H]1C[C@H](O[C@H]2CC[C@@]3(C)C(=CC[C@]4(O)[C@@H]3C[C@@H](OC(=O)/C=C(\C)C(C)C)[C@@]3(C)[C@]4(O)CC[C@@]3(O)C(C)=O)C2)O[C@H](C)[C@H]1O[C@H]1C[C@H](O)[C@H](O[C@H]2C[C@@H](OC)[C@H](O)[C@@H](C)O2)[C@@H](C)O1 | 12.9 | 17.2 | 27.4 | 30.4 | 24.8
3 | CO[C@H]1C[C@H](O[C@H]2[C@@H](OC)C[C@H](O[C@H]3CC[C@@]4(C)C(=CC[C@]5(O)[C@@H]4C[C@@H](OC(=O)/C=C/c4ccccc4)[C@@]4(C)[C@]5(O)CC[C@@]4(O)C(C)=O)C3)O[C@@H]2C)O[C@H](C)[C@H]1O | 20.6 | 25.6 | 33.1 | 35.5 | 36.7
4 | CO[C@H]1C[C@H](O[C@H]2CC[C@@]3(C)C(=CC[C@]4(O)[C@@H]3C[C@@H](OC(=O)/C=C(\C)C(C)C)[C@@]3(C)[C@]4(O)CC[C@@]3(O)C(C)=O)C2)O[C@H](C)[C@H]1O[C@H]1C[C@@H](OC)[C@H](O)[C@@H](C)O1 | 15.4 | > 40 | > 40 | > 40 | > 40
5 | CO[C@H]1C[C@H](O[C@H]2CC[C@@]3(C)C(=CC[C@]4(O)[C@@H]3C[C@@H](OC(=O)/C=C(\C)C(C)C)[C@@]3(C)[C@]4(O)CC[C@@]3(O)C(C)=O)C2)O[C@H](C)[C@H]1O[C@H]1C[C@H](OC)[C@H](O[C@H]2C[C@@H](OC)[C@H](O[C@H]3C[C@@H](OC)[C@H](O)[C@@H](C)O3)[C@@H](C)O2)[C@@H](C)O1 | 12.2 | 18 | 30.8 | > 40 | 28.8
6 | COc1cc(C(=O)O[C@@H]2C[C@@H]3[C@@]4(C)CC[C@H](O[C@H]5C[C@H](O)[C@H](O[C@H]6C[C@H](OC)[C@H](O[C@H]7C[C@@H](OC)[C@H](O)[C@@H](C)O7)[C@@H](C)O6)[C@@H](C)O5)CC4=CC[C@@]3(O)[C@@]3(O)CC[C@@](O)(C(C)=O)[C@@]23C)ccc1O | 37.9 | > 40 | > 40 | > 40 | > 40
7 | CO[C@H]1C[C@H](O[C@H]2CC[C@@]3(C)C(=CC[C@]4(O)[C@@H]3C[C@@H](OC(=O)/C=C(\C)C(C)C)[C@@]3(C)[C@]4(O)CC[C@@]3(O)C(C)=O)C2)O[C@H](C)[C@H]1O | 25.6 | > 40 | > 40 | > 40 | > 40
8 | CO[C@H]1C[C@H](O[C@H]2CC[C@@]3(C)C(=CC[C@]4(O)[C@@H]3C[C@@H](OC(=O)/C=C/C(C)C)[C@@]3(C)[C@]4(O)CC[C@@]3(O)C(C)=O)C2)O[C@H](C)[C@H]1O[C@H]1C[C@H](OC)[C@H](O[C@H]2C[C@@H](OC)[C@H](O)[C@@H](C)O2)[C@@H](C)O1 | 25.8 | > 40 | > 40 | > 40 | > 40
9 | CO[C@H]1C[C@H](O[C@H]2CC[C@@]3(C)C(=CC[C@]4(O)[C@@H]3C[C@@H](OC(=O)c3ccccc3)[C@@]3(C)[C@]4(O)CC[C@@]3(O)C(C)=O)C2)O[C@H](C)[C@H]1O[C@H]1C[C@@H](OC)[C@H](O)[C@@H](C)O1 | 15.6 | > 40 | > 40 | > 40 | > 40
10 | CO[C@H]1C[C@H](O[C@H]2CC[C@@]3(C)C(=CC[C@]4(O)[C@@H]3C[C@@H](OC(=O)c3ccc(O)cc3)[C@@]3(C)[C@]4(O)CC[C@@]3(O)C(C)=O)C2)O[C@H](C)[C@H]1O[C@H]1C[C@H](OC)[C@H](O[C@H]2C[C@@H](OC)[C@H](O)[C@@H](C)O2)[C@@H](C)O1 | 29.1 | > 40 | > 40 | > 40 | > 40
11 | C/C=C(\C)C(=O)O[C@@H]1C[C@@H]2[C@@]3(C)CC[C@H](O[C@H]4C[C@H](OC)[C@H](O[C@H]5C[C@H](OC)[C@H](O[C@H]6C[C@@H](OC)[C@H](O)[C@@H](C)O6)[C@@H](C)O5)[C@@H](C)O4)CC3=CC[C@@]2(O)[C@@]2(O)CC[C@@](O)(C(C)=O)[C@@]12C | 15.6 | > 40 | > 40 | > 40 | > 40
12 | CO[C@H]1C[C@H](O[C@H]2[C@@H](O)C[C@H](O[C@H]3CC[C@@]4(C)C(=CC[C@]5(O)[C@@H]4C[C@@H](OC(=O)/C=C(\C)C(C)C)[C@@]4(C)[C@]5(O)CC[C@@]4(O)C(C)=O)C3)O[C@@H]2C)O[C@H](C)[C@H]1O | 15.7 | > 40 | > 40 | > 40 | > 40
13 | CO[C@H]1C[C@H](O[C@H]2CC[C@@]3(C)C(=CC[C@]4(O)[C@@H]3C[C@@H](OC(=O)/C=C(\C)C(C)C)[C@@]3(C)[C@]4(O)CC[C@@]3(O)C(C)=O)C2)O[C@H](C)[C@H]1O[C@H]1C[C@H](OC)[C@H](O[C@H]2C[C@@H](OC)[C@H](O)[C@@H](C)O2)[C@@H](C)O1 | 11.4 | 16.1 | 27.9 | 27.7 | 30.3

— ChEMBL document CHEMBL4219202, “C21 steroidal glycosides with cytotoxic activities from Cynanchum otophyllum” (Bioorg Med Chem Lett, 2018)
